Key:
Test in all cases: relative viability (nuclei count vs DMSO), 5 days (fraction); higher = more cells survive
IDH-C35 + Dasatinib = compound: Cc1ccccc1C(C(=O)NC1CCCCC1)N(C(=O)Cn1ccnc1C)c1cccc(F)c1 [IDH-C35] + Cc1nc(Nc2ncc(C(=O)Nc3c(C)cccc3Cl)s2)cc(N2CCN(CCO)CC2)n1 [Dasatinib] (partner 0.075 µM)
Method in brief: (§1)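 Values are medians from duplicate plates. Each reflects relative viability, defined as the nuclei count of treated wells over that of vehicle wells. Lung cancer cell lines in 1536-well plates were pin-tool dosed one day after seeding with one drug alone or with a fixed anchor-drug dose plus five library-drug doses (not always all listed) in √10 steps, then fixed, stained and imaged at 4× after 5 days.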

IDH-C35 + Luminespib = compound: Cc1ccccc1C(C(=O)NC1CCCCC1)N(C(=O)Cn1ccnc1C)c1cccc(F)c1 [IDH-C35] + CCNC(=O)c1noc(-c2cc(C(C)C)c(O)cc2O)c1-c1ccc(CN2CCOCC2)cc1 [Luminespib] (partner 0.01 µM)
Method in brief: as §1

[1] = compound: CC1=C(C(=NN1)C)CC2=C(C3=C(S2)N(C(=O)N(C3=O)C)CC(C)C)C(=O)N4C[C@@H](CO4)O + CC1(C)CCC(c2ccc(Cl)cc2)=C(CN2CCN(c3ccc(C(=O)NS(=O)(=O)c4ccc(N[C@H](CCN5CCOCC5)CSc5ccccc5)c(S(=O)(=O)C(F)(F)F)c4)cc3)CC2)C1 [Navitoclax] (partner 0.5 µM)
Method in brief: as §1

[2] = compound: CC1=C(C(=NN1)C)CC2=C(C3=C(S2)N(C(=O)N(C3=O)C)CC(C)C)C(=O)N4C[C@@H](CO4)O + CS(=O)(=O)CCNCc1ccc(-c2ccc3ncnc(Nc4ccc(OCc5cccc(F)c5)c(Cl)c4)c3c2)o1 [Lapatinib] (partner 2 µM)
Method in brief: as §1

Row | Cell Line | relative viability (IDH-C35 + Dasatinib; first compound 0.08 µM) | relative viability (IDH-C35 + Dasatinib; first compound 0.253 µM) | relative viability (IDH-C35 + Dasatinib; first compound 0.8 µM) | relative viability (IDH-C35 + Dasatinib; first compound 2.53 µM) | relative viability (IDH-C35 + Dasatinib; first compound 8 µM) | relative viability (IDH-C35 + Luminespib; first compound 0.08 µM) | relative viability (IDH-C35 + Luminespib; first compound 0.253 µM) | relative viability (IDH-C35 + Luminespib; first compound 0.8 µM) | relative viability (IDH-C35 + Luminespib; first compound 2.53 µM) | relative viability (IDH-C35 + Luminespib; first compound 8 µM) | relative viability ([1]; first compound 0.0025 µM) | relative viability ([1]; first compound 0.007906 µM) | relative viability ([1]; first compound 0.025 µM) | relative viability ([1]; first compound 0.07906 µM) | relative viability ([1]; first compound 0.25 µM) | relative viability ([2]; first compound 0.0025 µM) | relative viability ([2]; first compound 0.007906 µM) | relative viability ([2]; first compound 0.025 µM) | relative viability ([2]; first compound 0.07906 µM) | relative viability ([2]; first compound 0.25 µM)
1 | NCI-H1975 | 0.35 | 0.42 | 0.366 | 0.483 | 0.346 | 0.165 | 0.244 | 0.206 | 0.276 | 0.135 | 1.13 | 1.18 | 1.15 | 1.19 | 1.21 | 0.792 | 0.942 | 0.916 | 0.995 | 1.08
2 | NCI-H1623 | 0.475 | 0.504 | 0.534 | 0.535 | 0.474 | 0.435 | 0.503 | 0.502 | 0.559 | 0.439 |  |  |  |  |  |  |  |  |  | 
3 | HCC-44 |  |  |  |  |  | 1.06 | 1.06 | 0.986 | 1.04 | 1.05 | 0.925 | 1.08 | 1.04 | 0.892 | 1.19 | 1.01 | 1.1 | 0.988 | 0.908 | 1.11
4 | NCI-H1703 |  |  |  |  |  |  |  |  |  |  | 1.36 | 1.4 | 0.972 | 0.928 | 0.744 | 1.14 | 1.37 | 1.02 | 1.14 | 1.08
5 | Calu-6 |  |  |  |  |  |  |  |  |  |  | 0.925 | 0.827 | 0.805 | 0.906 | 0.892 | 1.13 | 1.06 | 0.947 | 1.04 | 1.19
6 | EBC-1 |  |  |  |  |  |  |  |  |  |  | 0.473 | 0.426 | 0.485 | 0.498 | 0.494 | 0.201 | 0.204 | 0.217 | 0.203 | 0.204
7 | NCI-H358 | 0.205 | 0.159 | 0.141 | 0.193 | 0.169 | 0.526 | 0.388 | 0.283 | 0.26 | 0.242 |  |  |  |  |  | 0.58 | 0.425 | 0.478 | 0.514 | 0.434
8 | HCC-78 | 0.361 | 0.315 | 0.496 | 0.325 | 0.435 |  |  |  |  |  | 0.834 | 0.743 | 0.868 | 0.716 | 0.768 | 0.92 | 0.691 | 0.738 | 0.577 | 0.733
9 | IA-LM |  |  |  |  |  |  |  |  |  |  | 0.738 | 0.796 | 0.912 | 0.784 | 0.722 | 1.04 | 0.863 | 0.924 | 0.816 | 1.05
10 | NCI-H650 | 0.475 | 0.468 | 0.462 |  | 0.433 | 0.783 | 0.766 | 0.79 |  | 0.799 |  |  |  |  |  | 0.939 | 0.0037 | 0.753 | 0.893 | 0.956
11 | ChaGo-K-1 | 0.64 | 0.615 | 0.598 | 0.63 | 0.601 | 0.733 | 0.625 | 0.623 | 0.697 | 0.67 | 0.996 | 0.903 |  | 1.21 | 1.5 |  |  |  |  | 
12 | NCI-H522 | 0.977 | 0.976 | 0.858 | 1.01 | 0.905 | 0.958 | 1 | 1.1 | 1.22 | 1 |  |  |  |  |  |  |  |  |  | 
13 | NCI-H1299 |  |  |  |  |  |  |  |  |  |  | 1.08 | 1.04 | 1.08 | 1.05 | 0.987 | 0.953 | 0.992 | 0.93 | 0.935 | 0.986
14 | NCI-H2342 | 0.308 | 0.381 | 0.32 | 0.374 | 0.299 | 0.818 | 0.617 | 0.803 | 0.631 | 0.7 |  |  |  |  |  |  |  |  |  | 
15 | SW 900 | 0.534 | 0.764 | 0.478 | 0.578 | 0.552 | 0.175 | 0.178 | 0.181 | 0.179 | 0.162 |  |  |  |  |  |  |  |  |  | 
16 | HCC-366 | 0.763 | 0.67 | 0.669 |  | 0.596 |  |  |  |  |  | 1.09 | 0.997 | 1.05 | 1.03 | 1.13 | 1.02 | 1.03 | 1.06 | 1.07 | 1.15
17 | A549 |  |  |  |  |  |  |  |  |  |  | 1.32 | 1.27 | 1.14 | 1.32 | 1.24 | 1.08 | 1.07 | 1.04 | 0.976 | 1.08
18 | NCI-H661 | 0.898 | 0.945 | 0.868 | 0.974 | 0.79 | 0.905 | 0.907 | 0.963 | 0.882 | 0.914 |  |  |  |  |  | 0.523 | 0.649 | 0.464 | 0.623 | 0.493
19 | NCI-H1563 | 0.455 | 0.472 | 0.446 | 0.487 | 0.465 | 0.538 | 0.563 | 0.558 | 0.508 | 0.536 |  |  |  |  |  | 0.944 | 1.01 | 0.999 | 1.04 | 0.831
20 | ABC-1 | 0.583 | 0.58 | 0.485 | 0.476 | 0.631 | 0.598 |  | 0.688 | 0.805 | 0.818 |  |  |  |  |  | 1.5 | 0.918 | 1.12 | 0.92 | 0.823
21 | LCLC-103H | 0.485 | 0.441 | 0.45 | 0.423 | 0.514 | 0.93 | 0.999 | 0.95 | 0.959 | 0.859 |  |  |  |  |  |  |  |  |  | 
22 | NCI-H441 | 0.629 | 0.753 | 0.536 | 0.673 | 0.541 | 0.26 | 0.306 | 0.293 | 0.293 | 0.399 | 0.473 | 0.577 | 0.686 | 0.763 | 0.678 |  |  |  |  | 
